# According to US20230203060A1 (GENFLEET THERAPEUTICS (SHANGHAI) INC., priority 2020, published 2023):
# pIC50: −log10 of the molar value. Counter-ions that a name gives are not always drawn. Like-named read-outs stand apart in the source and are kept apart here.
# Key:
# [1] = system: phosphorylated ERK downstream of KRAS G12C in MIA PaCa2 cells; assay: Cell p-ERK detection experiment (HTRF) in MIA PaCa2; type: cell-based, human; conditions: read-out: p-ERK IC50
# Outline: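 Phospho-ERK (T202/Y204) measured by HTRF after 30 min lysis and 4 h antibody incubation in MIA PaCa2 (KRAS G12C) cells, seeded at 2.5E4 per well and treated 2 h with compounds in 3.16-fold steps, final DMSO 0.1%. IC50 from a four-parameter fit of percent inhibition relative to DMSO and blank wells.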
# KRAS G12C = target: T1, KRAS G12C (Homo sapiens, UniProt P01116, G12C); assay: KRAS G12C NEA-HTRF experiment (SOS1-catalyzed displacement of GDP by GTP); type: biochemical
# T1 construct: purchased Reactionbiology
# T1 sequence (P01116 1-188 isoform P01116-2 G12C): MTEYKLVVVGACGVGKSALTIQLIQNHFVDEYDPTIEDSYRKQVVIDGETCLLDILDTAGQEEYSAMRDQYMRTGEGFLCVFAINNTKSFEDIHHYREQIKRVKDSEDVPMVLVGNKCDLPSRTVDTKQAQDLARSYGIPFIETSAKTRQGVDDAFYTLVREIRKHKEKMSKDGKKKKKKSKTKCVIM
# Outline: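 His-tagged KRAS G12C preloaded with DY647-GDP was preincubated 15 min at 20 °C with compound, then exchanged with SOS1 (0.2 μM working solution) and GTP (200 μM working solution) for 2 h at 20 °C in the dark. HTRF 665/615 nm ratio with anti-His-Tb was normalised to T0 and no-compound controls; IC50 by four-parameter fit.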
# [2] = MIA PaCa2 cells, 2 hours with compound, Advance ERK phospho-T202/Y204 HTRF kit
# [3] = Homo sapiens, MIA PaCa-2, 2 h, MIA PaCa2 cells, 2 hours with compound, Advance ERK phospho-T202/Y204 HTRF kit
pIC50 (KRAS G12C),"pIC50 [1, 2]","pIC50 [1, 3]",Structure (SMILES),"pIC50 ([1]; Homo sapiens, MIA PaCa-2, 2 h)"
7.03,,6.98,"C=CC(=O)N1CCN2C(=O)c3c(N4CCN(CCO)C[C@@H]4C)nc(-c4c(O)cccc4F)c(Cl)c3OC[C@H]2C1 [Z257, (6aR)-8-acryloyl-4-chloro-3-(2-fluoro-6-hydroxyphenyl)-1-((S)-4-(2-hydroxyethyl)-2-methylpiperazin-1-yl)-6,6a,7 ,8,9,10-hexahydro-12H-pyrazino[2,1-c]pyrido[3,4-f][1,4]oxazepin-12-one]",
8.22,,7.89,"C=CC(=O)N1CCN2C(=O)c3c(N4C[C@@H](O)CC4(C)C)nc(-c4c(O)cccc4F)c(Cl)c3OC[C@H]2C1 (single isomer, unassigned) [Z81]",

# The next lines start with the molecule.
Structure (SMILES),pIC50 (KRAS G12C),"pIC50 [1, 2]","pIC50 [1, 3]","pIC50 ([1]; Homo sapiens, MIA PaCa-2, 2 h)"
"C=CC(=O)N1CCN2C(=O)c3c(N4CCN(C)C(C)(C)C4)nc(-c4ccccc4F)c(Cl)c3OC[C@H]2C1 [Z463, (R)-8-acryloyl-4-chloro-3-(2-fluorophenyl)-1-(3,3,4-trimethylpiperazin-1-yl)-6,6a,7,8,9,10-hexahydro-12H-pyrazino[2,1-c]pyrido[3,4-f][1,4]oxazepin-12-one, formate]",6.12,,,6.57
"C=CC(=O)N1CCN2C(=O)c3c(N4C[C@H](N(C)CCF)CC4(C)C)nc(-c4ccccc4F)c(Cl)c3OC[C@H]2C1 (single isomer, unassigned) [Z660-2]",7.30,7.04,,
"C=CC(=O)N1CCN2C(=O)c3c(N4CCN(C)C[C@@H]4C)nc(-c4c(O)cccc4Cl)c(Cl)c3OC[C@H]2C1 (single isomer, unassigned) [Z455-1]",6.16,6.32,,
